# pEC50: −log10 of the molar value.
# Test system: HBV DNA in HepG2.2.15 cells
# Assay: HBV in vitro dot-blot hybridization test
# Type: cell-based, Hepatitis B virus
# Settings: Hepatitis B virus, HepG2.2.15, dot-blot hybridization assay, read-out: Concentration for 50% inhibition of HBV (EC50)value
# Protocol: • 1. Purpose of the test: • The content of HBV DNA in HepG2.2.15 cells was detected by dot-blot hybridization test to evaluate an inhibitory action of the compound on HBV with an EC50 value as an indicator. • 2. Experimental materials: • 2.1 Cell lines: HepG2.2.15 Cells • HepG2.2.15 cell culture media (DMEM/F12, Invitrogen-11330057; 10% serum Invitrogen-10099141; 100 units/mL Penicillin and 10 μg/mL Streptomycin, Invitrogen-15140122; 1% non-essential amino acid, Invitrogen-11140076; 2 mM L-GLUTAMINE, Invitrogen-25030081; 300 µg/ml Geneticin, Invitrogen-10131027 • 2.2 Reagents: • Trypsin (I Invitrogen-25300062) • DPBS (Hyclone-SH30028.01B) • DMSO (Sigma-D2650-100ML) • 96-well cell-culture plate (Corning-3599) • CO2 incubator (HERA-CELL-240) • 20×SSC (Bio-serve Co. Ltd) • Tris-HCl (Aldirch-154563-1KG) • NaOH (Sinopharm 10019718) • NaCl (Sinopharm 10019308) • Hybridization solution (Major BioTech Co. Ltd, IMMUNE GOLD-HYB-500) • DIG Wash and Block Buffer set (Roche-11585762001) • Anti-digoxigenin-AP, Fab fragments from sheep (Roche-11093274910) • 2.3 Materials and Instruments: • Positively-Charged Nylon Membrane (GE-RPN2250B) • Transfer Membrane Instrument (Bio-Rad, 170-6545) • Hybridization Oven (HL-2000 Hybrilinker) • 3. Testing steps and Methods: • 3.1 HepG2.2.15 cells (4×10^4 cells/well) were planted into a 96-well plate, and at 37° C., 5% CO2 cultured overnight. • 3.2 On Day 2, the compounds were diluted in totally 6 concentrations with a dilution gradient of five times. The compounds at different concentrations were added into the culture wells in duplicate. The final concentration of DMSO in the culture media was 1%. 1 μM GLS4 was used as 100% inhibition control; 1% DMSO as 0% inhibition control. • 3.3 On Day 5, replacing with the fresh culture media containing the compound was performed. • 3.4 On Day 8 and Day 9, the culture media in the culture wells was removed, and the cells were harvested for dot-blot hybridization. • The lysate was added into a culture well, and at 37° C. incubating for half an hour to disintegrate cells; the supernatant was obtained by centrifugation and transferred into a new microplate; a denaturation solution was added, after sufficient mixing the denatured sample was transferred and imprinted onto a Nylon membrane, the nucleic acid was fixed onto the membrane by UV cross-linking. • Pre-hybridization: the membrane was incubated at 60° C. in a hybridization solution for 1 hour. • Hybridization: heating the denatured digoxin-labelled HBV DNA probe and incubating at 60° C. overnight. • Membrane Washing: performing high strigency washing twice, low strigency washing for 3 times. • Blocking: incubating the membrane at room temperature in a blocking solution for 30-60 minutes. • Hybridization: diluting the Antibody Solution with the blocking solution, in which the membrane was placed and incubated at room temperature for 30-60 minutes. • Developing: washing the membrane in a Detection Buffer for 5 minutes, followed by adding a developing solution, pressing and exposing. • The photos was saved in tiff format, and a gray value of the dot was quantified with quantity one software. • 3.5 Data Analysis: • 3.5.1 The inhibition percentage was calculated: % Inh.=[1−(sample dot gray value−1 μM GLS4 dot gray value 1)/(DMSO control dot gray value−1 μM GLS4 dot gray value 1)]×100. • 3.5.2 Calculating EC50: the concentration of the compound for 50% inhibition of HBV (EC50) was calculated by using GraphPad Prism Software. • 4.
row,SMILES,pEC50
1,CCOC(=O)C1=C2C[C@@H](CS(C)(=O)=O)CN2C(c2nccs2)=N[C@H]1c1ccc(F)cc1Br [Example 113],6.30 to 7.00
2,CCOC(=O)C1=C2C[C@H](CS(C)(=O)=O)CN2C(c2nccs2)=N[C@H]1c1ccc(F)cc1Br [Example 114],6.30 to 7.00
3,CCOC(=O)C1=C2CN(Cc3ccc(OC)cc3)C[C@@H](C(=O)OC)N2C(c2nccs2)=N[C@H]1c1ccc(F)cc1Br [Example 115],6.30 to 7.00
4,CCOC(=O)C1=C2C[C@@H](NS(=O)(=O)C(C)C)CN2C(c2nccs2)=N[C@H]1c1ccc(F)cc1Br [Example 116],> 7.00
5,CCOC(=O)C1=C2C[C@H](NS(=O)(=O)C(C)C)CN2C(c2nccs2)=N[C@H]1c1ccc(F)cc1Br [Example 117],> 7.00
6,CCOC(=O)C1=C2CN(C(=O)C3COC3)CCN2C(c2nccs2)=N[C@H]1c1ccc(F)cc1Br [Example 118],6.30 to 7.00
7,CCOC(=O)C1=C2C[C@@H](CNC(C)=O)CN2C(c2nccs2)=N[C@H]1c1ccc(F)cc1Br [Example 119],> 7.00
8,CCOC(=O)C1=C2C[C@H](CNC(C)=O)CN2C(c2nccs2)=N[C@H]1c1ccc(F)cc1Br [Example 120],> 7.00
9,CCOC(=O)C1=C2C[C@H](CNS(=O)(=O)C3CC3)CN2C(c2nccs2)=N[C@H]1c1ccc(F)cc1Br [Example 121],> 7.00
10,CCOC(=O)C1=C2C[C@@H](CNS(=O)(=O)C3CC3)CN2C(c2nccs2)=N[C@H]1c1ccc(F)cc1Br [Example 122],5.30 to 6.00
11,CCOC(=O)C1=C2C[C@@H](NS(=O)(=O)C(F)F)CN2C(c2nccs2)=N[C@H]1c1ccc(F)cc1Br [Example 123],> 7.00
12,CCOC(=O)C1=C2C[C@H](NS(=O)(=O)C(F)F)CN2C(c2nccs2)=N[C@H]1c1ccc(F)cc1Br [Example 124],> 7.00
13,CCOC(=O)C1=C2C[C@H](NS(C)(=O)=O)CN2C(c2nccs2)=N[C@H]1c1ccc(F)cc1Cl [Example 125],> 7.00
14,CCOC(=O)C1=C2C[C@@H](NS(C)(=O)=O)CN2C(c2nccs2)=N[C@H]1c1ccc(F)cc1Cl [Example 126],> 7.00
15,CCOC(=O)C1=C2C[C@@H](N(C)S(C)(=O)=O)CN2C(c2nccs2)=N[C@H]1c1ccc(F)cc1Br [Example 127],> 7.00
16,CCOC(=O)C1=C2C[C@H](NS(=O)(=O)C(F)F)CN2C(c2nccs2)=N[C@H]1c1ccc(F)cc1Cl [Example 128],> 7.00
17,CCOC(=O)C1=C2C[C@H](NS(=O)(=O)/C=C/F)CN2C(c2nccs2)=N[C@H]1c1ccc(F)cc1Cl [Example 129],> 7.00
18,CCOC(=O)C1=C2C[C@H](N3CCOCC3)CN2C(c2nccs2)=N[C@H]1c1ccc(F)cc1Cl [Example 130],> 7.00
19,CCOC(=O)C1=C2C[C@H](N3CCCC3C(=O)OC)CN2C(c2nccs2)=N[C@H]1c1ccc(F)cc1Cl (some centres unmarked) [Example 131],5.30 to 6.00
20,CCOC(=O)C1=C2C[C@H](NS(=O)(=O)c3cnn(C)c3)CN2C(c2nccs2)=N[C@H]1c1ccc(F)cc1Cl [Example 132],> 7.00
21,CCOC(=O)C1=C2C[C@H](NC(=O)C(F)F)CN2C(c2nccs2)=N[C@H]1c1ccc(F)cc1Cl [Example 133],6.30 to 7.00
22,CCOC(=O)C1=C2CN(Cc3ccc(OC)cc3)S(=O)(=O)CN2C(c2nccs2)=N[C@H]1c1ccc(F)cc1Br [Example 134],5.30 to 6.00

# Same assay, conditions: Hepatitis B virus, HepG2.2.15, summary list of target compounds, Examples 1-165 (same as Table 2), read-out: BIOACTIVITY (inhibitory actions on HBV DNA, EC50)
row,SMILES,pEC50
1,CCOC(=O)C1=C2C[C@@H](CS(C)(=O)=O)CN2C(c2nccs2)=N[C@H]1c1ccc(F)cc1Br [Example 113],6.30 to 7.00
2,CCOC(=O)C1=C2C[C@H](CS(C)(=O)=O)CN2C(c2nccs2)=N[C@H]1c1ccc(F)cc1Br [Example 114],6.30 to 7.00
3,CCOC(=O)C1=C2CN(Cc3ccc(OC)cc3)C[C@@H](C(=O)OC)N2C(c2nccs2)=N[C@H]1c1ccc(F)cc1Br [Example 115],6.30 to 7.00
4,CCOC(=O)C1=C2C[C@@H](NS(=O)(=O)C(C)C)CN2C(c2nccs2)=N[C@H]1c1ccc(F)cc1Br [Example 116],> 7.00
5,CCOC(=O)C1=C2C[C@H](NS(=O)(=O)C(C)C)CN2C(c2nccs2)=N[C@H]1c1ccc(F)cc1Br [Example 117],> 7.00
6,CCOC(=O)C1=C2CN(C(=O)C3COC3)CCN2C(c2nccs2)=N[C@H]1c1ccc(F)cc1Br [Example 118],6.30 to 7.00
7,CCOC(=O)C1=C2C[C@@H](CNC(C)=O)CN2C(c2nccs2)=N[C@H]1c1ccc(F)cc1Br [Example 119],> 7.00
8,CCOC(=O)C1=C2C[C@H](CNC(C)=O)CN2C(c2nccs2)=N[C@H]1c1ccc(F)cc1Br [Example 120],> 7.00
9,CCOC(=O)C1=C2C[C@H](CNS(=O)(=O)C3CC3)CN2C(c2nccs2)=N[C@H]1c1ccc(F)cc1Br [Example 121],> 7.00
10,CCOC(=O)C1=C2C[C@@H](CNS(=O)(=O)C3CC3)CN2C(c2nccs2)=N[C@H]1c1ccc(F)cc1Br [Example 122],5.30 to 6.00
11,CCOC(=O)C1=C2C[C@@H](NS(=O)(=O)C(F)F)CN2C(c2nccs2)=N[C@H]1c1ccc(F)cc1Br [Example 123],> 7.00
12,CCOC(=O)C1=C2C[C@H](NS(=O)(=O)C(F)F)CN2C(c2nccs2)=N[C@H]1c1ccc(F)cc1Br [Example 124],> 7.00
13,CCOC(=O)C1=C2C[C@H](NS(C)(=O)=O)CN2C(c2nccs2)=N[C@H]1c1ccc(F)cc1Cl [Example 125],> 7.00
14,CCOC(=O)C1=C2C[C@@H](NS(C)(=O)=O)CN2C(c2nccs2)=N[C@H]1c1ccc(F)cc1Cl [Example 126],> 7.00
15,CCOC(=O)C1=C2C[C@@H](N(C)S(C)(=O)=O)CN2C(c2nccs2)=N[C@H]1c1ccc(F)cc1Br [Example 127],> 7.00
16,CCOC(=O)C1=C2C[C@H](NS(=O)(=O)C(F)F)CN2C(c2nccs2)=N[C@H]1c1ccc(F)cc1Cl [Example 128],> 7.00
17,CCOC(=O)C1=C2C[C@H](NS(=O)(=O)/C=C/F)CN2C(c2nccs2)=N[C@H]1c1ccc(F)cc1Cl [Example 129],> 7.00
18,CCOC(=O)C1=C2C[C@H](N3CCOCC3)CN2C(c2nccs2)=N[C@H]1c1ccc(F)cc1Cl [Example 130],> 7.00
19,CCOC(=O)C1=C2C[C@H](N3CCCC3C(=O)OC)CN2C(c2nccs2)=N[C@H]1c1ccc(F)cc1Cl (some centres unmarked) [Example 131],5.30 to 6.00
20,CCOC(=O)C1=C2C[C@H](NS(=O)(=O)c3cnn(C)c3)CN2C(c2nccs2)=N[C@H]1c1ccc(F)cc1Cl [Example 132],> 7.00
21,CCOC(=O)C1=C2C[C@H](NC(=O)C(F)F)CN2C(c2nccs2)=N[C@H]1c1ccc(F)cc1Cl [Example 133],6.30 to 7.00
22,CCOC(=O)C1=C2CN(Cc3ccc(OC)cc3)S(=O)(=O)CN2C(c2nccs2)=N[C@H]1c1ccc(F)cc1Br [Example 134],5.30 to 6.00
